Results from US20230242530A1, “8-(AZETIDIN-1-YL)-[1,2,4]TRIAZOLO[1,5-A]PYRIDINYL COMPOUNDS, COMPOSITIONS AND METHODS OF USE THEREOF” (Genentech, Inc., priority 2016, published 2023).

Columns and labels:
[1] = test system: JAK1-dependent STAT6 phosphorylation downstream of IL-13 stimulation in BEAS-2B cells; experiment: JAK1 pathway assay in cell lines: IL-13 p-STAT6 BEAS-2B; type: cell-based; conditions: BEAS-2B human bronchial epithelial cells, 1 hr compound, IL-13 15 min, MSD readout
Summary of the method: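 BEAS-2B cells plated a day ahead in complete growth medium; compounds added 1 hr at 37 °C (0.2% DMSO final), then IL-13 at lot-specific EC90 for 15 min at 37 °C. Phospho-STAT6 in lysates measured by MSD; EC50 is 50% inhibition relative to DMSO control.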

[2] = target: T1, isolated recombinant JAK2 kinase domain (Homo sapiens, UniProt O60674); experiment: JAK enzyme assay, JAK2 kinase domain (Caliper LabChip); type: biochemical; conditions: 0.2 nM JAK2, ATP 25 μM, Morrison tight binding model
T1 construct: isolated recombinant JAK1 and JAK2 kinase domain
Summary of the method: (§1)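 Recombinant kinase domains phosphorylated a 5-carboxyfluorescein-labelled JAK3-derived peptide for 30 min at 22 °C, and the reaction was stopped with EDTA (50 mM final). Product fraction was measured by Caliper LabChip mobility shift. Ki came from Morrison tight-binding fits corrected for ATP competition (Ki=Ki,app/(1+[ATP]/Km,app)).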

[3] = target: T2, isolated recombinant JAK1 kinase domain (Homo sapiens, UniProt P23458); experiment: JAK enzyme assay, JAK1 kinase domain (Caliper LabChip); type: biochemical; conditions: 1.5 nM JAK1, ATP 25 μM, Morrison tight binding model
T2 construct: isolated recombinant JAK1 and JAK2 kinase domain
Summary of the method: as §1

T1 sequence (O60674 849-1124 limits assumed): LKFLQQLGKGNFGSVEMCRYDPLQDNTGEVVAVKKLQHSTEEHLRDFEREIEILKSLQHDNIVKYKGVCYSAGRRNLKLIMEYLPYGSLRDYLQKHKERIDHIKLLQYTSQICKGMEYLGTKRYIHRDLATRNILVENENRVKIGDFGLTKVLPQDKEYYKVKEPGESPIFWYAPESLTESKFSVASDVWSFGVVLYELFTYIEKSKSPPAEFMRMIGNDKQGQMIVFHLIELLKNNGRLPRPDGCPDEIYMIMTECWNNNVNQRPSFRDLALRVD
T2 sequence (P23458 875-1153 limits assumed): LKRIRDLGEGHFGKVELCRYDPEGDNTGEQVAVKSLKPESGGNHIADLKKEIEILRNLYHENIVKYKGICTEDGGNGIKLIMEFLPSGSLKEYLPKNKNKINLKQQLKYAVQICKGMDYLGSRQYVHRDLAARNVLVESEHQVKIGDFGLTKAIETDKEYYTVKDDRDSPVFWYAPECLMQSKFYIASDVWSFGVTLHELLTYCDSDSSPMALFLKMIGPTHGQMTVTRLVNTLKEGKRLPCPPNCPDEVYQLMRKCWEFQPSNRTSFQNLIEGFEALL

SMILES	EC50 [1] [nM]	Ki [2] [nM]	Ki [3] [nM]
CN1CCN(C(=O)Cn2cc(Nc3nc4c(N5CC(CC#N)(n6cc(-c7ccccc7F)cn6)C5)cccn4n3)cn2)CC1 [Example 77, 2-[3-[4-(2-fluorophenyl)pyrazol-1-yl]-1-[2-[[1-[2-(4-methylpiperazin-1-yl)-2-oxo-ethyl]pyrazol-4-yl]amino]-[1,2,4]triazolo[1,5-a]pyridin-8-yl]azetidin-3-yl]acetonitrile]	17	0.6	0.2
CSc1cccc(C2(CC#N)CN(c3cccn4nc(Nc5cnn(CC(=O)N6CCN(C)CC6)c5)nc34)C2)c1 [Example 78]	17	0.9	0.3
CSc1cc(C2(CC#N)CN(c3cccn4nc(Nc5cnn(CC(=O)N6CCN(C)CC6)c5)nc34)C2)ccc1F [Example 79, 2-[3-(4-fluoro-3-methylsulfanyl-phenyl)-1-[2-[[1-[2-(4-methylpiperazin-1-yl)-2-oxo-ethyl]pyrazol-4-yl]amino]-[1,2,4]triazolo[1,5-a]pyridin-8-yl]azetidin-3-yl]acetonitrile]	16	0.7	0.3
CCN1CCN(C(=O)Cn2cc(Nc3nc4c(N5CC(CC#N)(c6cccc(SC)c6)C5)cccn4n3)cn2)CC1 [Example 80]	51	0.8	0.5
COCCN1CCN(C(=O)Cn2cc(Nc3nc4c(N5CC(CC#N)(c6cccc(Cl)c6)C5)cccn4n3)cn2)CC1 [Example 81, 2-[3-(3-chlorophenyl)-1-[2-[[1-[2-[4-(2-methoxyethyl)piperazin-1-yl]-2-oxo-ethyl]pyrazol-4-yl]amino]-[1,2,4]triazolo[1,5-a]pyridin-8-yl]azetidin-3-yl]acetonitrile]	27	1	0.4
N#CCC1(c2cccc(Cl)c2)CN(c2cccn3nc(Nc4cnn(CC(=O)N5CCN(CCN6CCOCC6)CC5)c4)nc23)C1 [Example 82, 2-[3-(3-chlorophenyl)-1-[2-[[1-[2-[4-(2-morpholinoethyl)piperazin-1-yl]-2-oxo-ethyl]pyrazol-4-yl]amino]-[1,2,4]triazolo[1,5-a]pyridin-8-yl]azetidin-3-yl]acetonitrile]	22	0.2	0.2
CN1CCN(C(=O)Cn2cc(Nc3nc4c(N5CC(CC#N)(c6ccc(F)c(Cl)c6)C5)cccn4n3)cn2)CC1 [Example 83, 2-[3-(3-chloro-4-fluoro-phenyl)-1-[2-[[1-[2-(4-methylpiperazin-1-yl)-2-oxo-ethyl]pyrazol-4-yl]amino]-[1,2,4]triazolo[1,5-a]pyridin-8-yl]azetidin-3-yl]acetonitrile]	14	0.2	0.2
CCc1cnn(C2(CC#N)CN(c3cccn4nc(Nc5ccc(C(=O)N(C)CC6CCN(C)CC6)cc5)nc34)C2)c1 [Example 84, 4-[[8-[3-(cyanomethyl)-3-(4-ethylpyrazol-1-yl)azetidin-1-yl]-[1,2,4]triazolo[1,5-a]pyridin-2-yl]amino]-N-methyl-N-[(l-methyl-4-piperidyl)methyl]benzamide]	16	0.3	0.3
CCc1cnn(C2(CC#N)CN(c3cccn4nc(Nc5ccc(C(=O)N6CC7(CCN(C)CC7)C6)cc5)nc34)C2)c1 [Example 85, 2-[3-(4-ethylpyrazol-1-yl)-1-[2-[4-(7-methyl-2,7-diazaspiro[3.5]nonane-2-carbonyl)anilino]-[1,2,4]triazolo[1,5-a]pyridin-8-yl]azetidin-3-yl]acetonitrile]	197	9.3	1.1
CCc1cnn(C2(CC#N)CN(c3cccn4nc(Nc5ccc(C(=O)N6CC7(CCN(C8COC8)CC7)C6)cc5)nc34)C2)c1 [Example 86, 2-[3-(4-ethylpyrazol-1-yl)-1-[2-[4-[7-(oxetan-3-yl)-2,7-diazaspiro[3.5]nonane-2-carbonyl]anilino]-[1,2,4]triazolo[1,5-a]pyridin-8-yl]azetidin-3-yl]acetonitrile]	11	0.2	0.2
CN1CCN(C(=O)Cn2cc(Nc3nc4c(N5CC(CC#N)(n6cc(C#N)cn6)C5)cccn4n3)cn2)CC1 [Example 87, 1-[3-(cyanomethyl)-1-[2-[[1-[2-(4-methylpiperazin-1-yl)-2-oxo-ethyl]pyrazol-4-yl]amino]-[1,2,4]triazolo[1,5-a]pyridin-8-yl]azetidin-3-yl]pyrazole-4-carbonitrile]	17	0.7	0.2
CCc1cnn(C2(CC#N)CN(c3cccn4nc(Nc5ccc(C(=O)N(C)CC6CCN(C7COC7)CC6)cc5)nc34)C2)c1 [Example 88, 4-[[8-[3-(cyanomethyl)-3-(4-ethylpyrazol-1-yl)azetidin-1-yl]-[1,2,4]triazolo[1,5-a]pyridin-2-yl]amino]-N-methyl-N-[[1-(oxetan-3-yl)-4-piperidyl]methyl]benzamide]	35	1	0.4
CSc1cccc(C2(CC#N)CN(c3cccn4nc(Nc5cnn(CC(=O)N6CCC(N7CCOCC7)CC6)c5)nc34)C2)c1 [Example 90, 2-[3-(3-methylsulfanylphenyl)-1-[2-[[1-[2-(4-morpholino-1-piperidyl)-2-oxo-ethyl]pyrazol-4-yl]amino]-[1,2,4]triazolo[1,5-a]pyridin-8-yl]azetidin-3-yl]acetonitrile]	22	0.2	0.4
CCc1cnn(C2(CC#N)CN(c3cccn4nc(Nc5ccc(C(=O)N6CCN(C)CC6)c(F)c5)nc34)C2)c1 [Example 91, 2-[3-(4-ethylpyrazol-1-yl)-1-[2-[3-fluoro-4-(4-methylpiperazine-1-carbonyl)anilino]-[1,2,4]triazolo[1,5-a]pyridin-8-yl]azetidin-3-yl]acetonitrile]	213	0.9	0.4
CCc1cnn(C2(CC#N)CN(c3cccn4nc(Nc5ccc(C(=O)N6CCN(C)CC6)c(C)c5)nc34)C2)c1 [Example 92, 2-[3-(4-ethylpyrazol-1-yl)-1-[2-[3-methyl-4-(4-methylpiperazine-1-carbonyl)anilino]-[1,2,4]triazolo[1,5-a]pyridin-8-yl]azetidin-3-yl]acetonitrile]	19	1.7	0.4
N#CCC1(c2cccc(Cl)c2)CN(c2cccn3nc(Nc4cnn(CC(=O)N5CCC(NC6COC6)CC5)c4)nc23)C1 [Example 93, 2-[3-(3-chlorophenyl)-1-[2-[[1-[2-[4-(oxetan-3-ylamino)-1-piperidyl]-2-oxo-ethyl]pyrazol-4-yl]amino]-[1,2,4]triazolo[1,5-a]pyridin-8-yl]azetidin-3-yl]acetonitrile]	79	0.7	0.4
COCCN1CCN(C(=O)Cn2cc(Nc3nc4c(N5CC(CC#N)(n6cc(C(F)(F)F)cn6)C5)cccn4n3)cn2)CC1 [Example 94]	54	1	0.3
CC(=O)N1CCN(CC2CCN(C(=O)Cn3cc(Nc4nc5c(N6CC(CC#N)(c7cccc(Cl)c7)C6)cccn5n4)cn3)CC2)CC1 [Example 95, 2-[1-[2-[[1-[2-[4-[(4-acetylpiperazin-1-yl)methyl]-1-piperidyl]-2-oxo-ethyl]pyrazol-4-yl]amino]-[1,2,4]triazolo[1,5-a]pyridin-8-yl]-3-(3-chlorophenyl)azetidin-3-yl]acetonitrile]	41	1.3	0.4
N#CCC1(n2cc(C(F)(F)F)cn2)CN(c2cccn3nc(Nc4cnn(CC(=O)N5CCC(N6CCOCC6)CC5)c4)nc23)C1 [Example 96, 2-[1-[2-[[1-[2-(4-morpholino-1-piperidyl)-2-oxo-ethyl]pyrazol-4-yl]amino]-[1,2,4]triazolo[1,5-a]pyridin-8-yl]-3-[4-(trifluoromethyl)pyrazol-1-yl]azetidin-3-yl]acetonitrile]	28	0.8	0.3
N#CCC1(n2cc(C(F)(F)F)cn2)CN(c2cccn3nc(Nc4cnn(CC(=O)N5CCN(C6COC6)CC5)c4)nc23)C1 [Example 97, 2-[1-[2-[[1-[2-[4-(oxetan-3-yl)piperazin-1-yl]-2-oxo-ethyl]pyrazol-4-yl]amino]-[1,2,4]triazolo[1,5-a]pyridin-8-yl]-3-[4-(trifluoromethyl)pyrazol-1-yl]azetidin-3-yl]acetonitrile]	51	0.8	0.5
N#CCC1(n2cc(C(F)(F)F)cn2)CN(c2cccn3nc(Nc4cnn(CC(=O)N5CCN(C6CCOCC6)CC5)c4)nc23)C1 [Example 98, 2-[1-[2-[[1-[2-oxo-2-(4-tetrahydropyran-4-ylpiperazin-1-yl)ethyl]pyrazol-4-yl]amino]-[1,2,4]triazolo[1,5-a]pyridin-8-yl]-3-[4-(trifluoromethyl)pyrazol-1-yl]azetidin-3-yl]acetonitrile]	32	0.8	0.5
N#CCC1(c2cccc(Cl)c2)CN(c2cccn3nc(Nc4cnn(CC(=O)N5CCC(NCC6(C#N)CC6)CC5)c4)nc23)C1 [Example 99, 1-[[[1-[2-[4-[[8-[3-(3-chlorophenyl)-3-(cyanomethyl)azetidin-1-yl]-[1,2,4]triazolo[1,5-a]pyridin-2-yl]amino]pyrazol-1-yl]acetyl]-4-piperidyl]amino]methyl]cycl opropanecarbonitrile]	71	4	2
